# Like-named read-outs stand apart in the source and are kept apart here.
# Molecular target: PD-1/PD-L1 interaction (PD-1-Ig / PD-L1-His) (Homo sapiens (Human), UniProt Q9NZQ7)
# Experiment: PD-1/PD-L1 Homogenous Time-Resolved Fluorescence (HTRF) binding assay
# Settings: PD-1/PD-L1 HTRF binding assay, read-out: Range or IC50
# How it was run: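 HTRF detection used 1 nM europium-cryptate anti-Ig and 20 nM APC anti-His. Compounds first saw 10 nM PD-L1-His for 15 min, and 20 nM PD-1-Ig was then added for another 15 min. Buffer was dPBS plus 0.1% BSA and 0.05% Tween-20. All concentrations are final.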
# PD-1/PD-L1 interaction (PD-1-Ig / PD-L1-His), sequence (Q9NZQ7 other isoform, or with tags, fused parts or gaps): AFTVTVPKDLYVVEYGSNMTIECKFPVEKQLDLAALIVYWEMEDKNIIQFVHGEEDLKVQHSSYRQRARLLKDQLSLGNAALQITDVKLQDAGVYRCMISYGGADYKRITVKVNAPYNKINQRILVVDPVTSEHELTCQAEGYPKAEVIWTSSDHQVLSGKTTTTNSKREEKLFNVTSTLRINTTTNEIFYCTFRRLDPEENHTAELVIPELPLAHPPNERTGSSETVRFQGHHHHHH
IC50 (value given as range class),IC50 (numeric value),Structure (SMILES)
0.6 to 10 nM,–,"Cc1c(COc2cc(OCc3cncc(C#N)c3)c(CN[C@@H](CCC(=O)O)C(=O)O)cc2Cl)cccc1-c1ccc2c(c1)OCCO2 [Example 2012, (S)-2-((5-chloro-2-((5-cyanopyridin-3-yl)methoxy)-4-((3-(2,3-dihydrobenzo[b][1,4]dioxin-6-yl)-2-methylbenzyl)oxy)benzyl)amino)pentanedioic acid]"
0.6 to 10 nM,–,"CCc1cc(CN[C@](C)(CO)C(=O)O)c(OCc2cccc(C#N)c2)cc1OCc1cccc(-c2ccc3c(c2)OCCO3)c1C [Example 1291, (R)-2-(2-(3-cyanobenzyloxy)-4-(3-(2,3-dihydrobenzo[b][1,4]dioxin-6-yl)-2-methylbenzyloxy)-5-ethylbenzylamino)-3-hydroxy-2-methylpropanoic acid]"
0.6 to 10 nM,–,"Cc1c(COc2cc(OCc3cccc(C#N)c3)c(CNC(C)(C)CN3CCN(C)CC3)cc2Cl)cccc1-c1ccc2c(c1)OCCO2 [Example 1223, 3-((4-chloro-5-((3-(2,3-dihydrobenzo[b][1,4]dioxin-6-yl)-2-methylbenzyl)oxy)-2-(((2-methyl-1-(4-methylpiperazin-1-yl)propan-2-yl)amino)methyl)phenoxy)methyl)benzonitrile]"
100 to 20000 nM,–,"CC(=O)NCCNCc1ccc(OCc2cccc(-c3ccccc3)c2C)cc1OCc1cccc(CO)c1 [Example 1037, N-(2-((2-((3-(hydroxymethyl)benzyl)oxy)-4-((2-methyl-[1,1′-biphenyl]-3-yl)methoxy)benzyl)amino)ethyl)acetamide]"
100 to 20000 nM,–,"Cc1c(COc2cc(OCc3ccnc(C(=O)N(C)C)c3)c(CO)cc2Cl)cccc1-c1ccc2c(c1)OCCO2 [Example 3019, 4-(4-chloro-5-{[3-(2,3-dihydro-1,4-benzodioxin-6-yl)-2-methylphenyl]methoxy}-2-(hydroxymethyl)phenoxymethyl)-N,N-dimethylpyridine-2-carboxamide]"
0.6 to 10 nM,–,"Cc1c(COc2cc(OCc3cncc(C#N)c3)c(CN3CCCC[C@H]3C(=O)NS(C)(=O)=O)cc2Cl)cccc1-c1ccc2c(c1)OCCO2 [Example 1256, (S)-1-(5-chloro-2-((5-cyanopyridin-3-yl)methoxy)-4-((3-(2,3-dihydrobenzo[b][1,4]dioxin-6-yl)-2-methylbenzyl)oxy)benzyl)-N-(methylsulfonyl)piperidine-2-carboxamide]"
10 to 100 nM,–,"CC(=O)NCCNCc1c(C)cc(OCc2cccc(-c3ccc4c(c3)OCCO4)c2C)cc1OCc1cccc(C#N)c1 [Example 1000, N-(2-(2-(3-cyanobenzyloxy)-4-(3-(2,3-dihydrobenzo[b][1,4]dioxin-6-yl)-2-methylbenzyloxy)-6-methylbenzylamino)ethyl)acetamide]"
100 to 20000 nM,–,"CC(=O)NCCNCc1ccc(OCc2cccc(-c3ccccc3)c2C)cc1OCc1cccc(C(F)(F)F)c1 [Example 1051, N-(2-((4-((2-methyl-[1,1′-biphenyl]-3-yl)methoxy)-2-((3-(trifluoromethyl)benzyl)oxy)benzyl)amino)ethyl)acetamide]"
0.6 to 10 nM,–,"COc1cc(COc2cc(OCc3cccc(-c4ccc5c(c4)OCCO5)c3C)c(Cl)cc2CN[C@@](C)(CO)C(=O)O)ccn1 [Example 3015, (2S)-2-{[(5-chloro-4-{[3-(2,3-dihydro-1,4-benzodioxin-6-yl)-2-methylphenyl]methoxy}-2-[(2-methoxypyridin-4-yl)methoxy]phenyl)methyl]amino}-3-hydroxy-2-methylpropanoic acid]"
0.6 to 10 nM,–,"Cc1c(COc2cc(OCc3cccc(C#N)c3)c(CN[C@@H](CCCCN(C)C)C(=O)O)cc2Cl)cccc1-c1ccc2c(c1)OCCO2 [Example 1173, (S)-2-((5-chloro-2-((3-cyanobenzyl)oxy)-4-((3-(2,3-dihydrobenzo[b][1,4]dioxin-6-yl)-2-methylbenzyl)oxy)benzyl)amino)-6-(dimethylamino)hexanoic acid]"
10 to 100 nM,–,"Cc1c(COc2cc(OCc3cncc(C#N)c3)c(CN[C@@H](Cc3ccncc3)C(=O)O)cc2Cl)cccc1-c1ccc2c(c1)OCCO2 [Example 2011, (S)-2-((5-chloro-2-((5-cyanopyridin-3-yl)methoxy)-4-((3-(2,3-dihydrobenzo[b][1,4]dioxin-6-yl)-2-methylbenzyl)oxy)benzyl)amino)-3-(pyridin-4-yl)propanoic acid]"
0.6 to 10 nM,0.92 nM,"CC(=O)NCCNCc1cc(C)c(OCc2cccc(-c3ccc4c(c3)OCCO4)c2C#N)cc1OCc1cncc(C#N)c1 [Example 1305, N-(2-(4-(2-cyano-3-(2,3-dihydrobenzo[b][1,4]dioxin-6-yl)benzyloxy)-2-((5-cyanopyridin-3-yl)methoxy)-5-methylbenzylamino)ethyl)acetamide]"
0.6 to 10 nM,–,"Cc1c(COc2cc(OCc3cccc(C#N)c3)c(CN[C@@H](Cc3cscn3)C(=O)O)cc2Cl)cccc1-c1ccc2c(c1)OCCO2 [Example 1208, (S)-2-((5-chloro-2-((3-cyanobenzyl)oxy)-4-((3-(2,3-dihydrobenzo[b][1,4]dioxin-6-yl)-2-methylbenzyl)oxy)benzyl)amino)-3-(thiazol-4-yl)propanoic acid]"
0.6 to 10 nM,–,"Cc1c(COc2cc(OCc3cccc(S(C)(=O)=O)c3)c(CN[C@@](C)(CO)C(=O)O)cc2Cl)cccc1-c1ccc2c(c1)OCCO2 [Example 3021, (S)-2-((5-chloro-4-((3-(2,3-dihydrobenzo[b][1,4]dioxin-6-yl)-2-methylbenzyl)oxy)-2-((3-(methylsulfonyl)benzyl)oxy)benzyl)amino)-3-hydroxy-2-methylpropanoic acid]"
0.6 to 10 nM,–,"Cc1cc(OCc2cccc(-c3ccc4c(c3)OCCO4)c2C)cc(OCc2cccc(C#N)c2)c1CN[C@H](CO)C(=O)O [Example 1002, (R)-2-(2-(3-cyanobenzyloxy)-4-(3-(2,3-dihydrobenzo[b][1,4]dioxin-6-yl)-2-methylbenzyloxy)-6-methylbenzylamino)-3-hydroxypropanoic acid]"
0.6 to 10 nM,–,"Cc1c(COc2cc(OCc3cccc(C#N)c3)c(CN3CCC[C@@H](C(=O)O)[C@H]3C(=O)O)cc2Cl)cccc1-c1ccc2c(c1)OCCO2 [Example 1190, (2S,3R)-1-(5-chloro-2-((3-cyanobenzyl)oxy)-4-((3-(2,3-dihydrobenzo[b][1,4]dioxin-6-yl)-2-methylbenzyl)oxy)benzyl)piperidine-2,3-dicarboxylic acid]"
0.6 to 10 nM,–,"Cc1c(COc2ccc(CNC(C)(CO)C(=O)O)c(OCc3cccc(C#N)c3)c2)cccc1-c1ccccc1 (centres unmarked) [Example 1014, 2-((2-((3-cyanobenzyl)oxy)-4-((2-methyl-[1,1′-biphenyl]-3-yl)methoxy)benzyl)amino)-3-hydroxy-2-methylpropanoic acid]"
–,986 nM,"CC(=O)NCCNCc1ccc(OCc2cccc(-c3ccccc3)c2C)cc1OCc1ccccc1[N+](=O)[O-] [Example 1057, N-(2-((4-((2-methyl-[1,1′-biphenyl]-3-yl)methoxy)-2-((2-nitrobenzyl)oxy)benzyl)amino)ethyl)acetamide]"
10 to 100 nM,–,"Cc1c(COc2ccc(CNC(CO)(C(=O)O)C(C)C)c(OCc3cccc(C#N)c3)c2)cccc1-c1ccccc1 (centres unmarked) [Example 1020, 2-((2-((3-cyanobenzyl)oxy)-4-((2-methyl-[1,1′-biphenyl]-3-yl)methoxy)benzyl)amino)-2-(hydroxymethyl)-3-methylbutanoic acid]"

# Reference: US9850225B2, “Compounds useful as immunomodulators” (BRISTOL-MYERS SQUIBB COMPANY, priority 2014, dated 2017)
